Data: patent publication US20120309717A1, “COMPOUNDS, METHODS AND PHARMACEUTICAL COMPOSITIONS FOR INHIBITING PARP” (EISAI INC., priority 2003, published 2012)

What was measured:
[1] = test system: human glioblastoma multiforme cell line SJGBM2; test: colony-formation assay, SJGBM2; type: cell-based
Protocol: (§1) The murine melanoma cell line B16 of C57BL/6J (H-2^b/H-2^b) origin and the lymphoma cell line L5178Y of DBA/2 (H-2^d/H-2^d) origin (ATCC, Manassas, Va.) were cultured in RPMI-1640 containing 10% fetal calf serum (Invitrogen, Milan, Italy), 2 mM L-glutamine, 100 units/ml penicillin and 100 μg/ml streptomycin (Flow Laboratories, Mc Lean, Va.), at 37° C. in a 5% CO2 humidified atmosphere. The human glioblastoma multiforme cell line SJGBM2 was cultured in DMEM (Invitrogen) supplemented with 10% fetal calf serum, 2 mM L-glutamine and antibiotics. SJGBM2 cell line was a kind gift from Dr. Peter J. Houghton (St. Jude Children's Research Hospital, Memphis, Tenn., USA).
Cells were treated with 43 (0.1-20 μM) or with TMZ (1-250 μM). For the experiments aimed at assessing the enhancing effect of 43 on TMZ-induced tumor growth inhibition, the methylating agent was added to cell cultures 15 min after 43 was used at concentrations non-toxic, and capable of abrogating PARP activity.
(§2) Long-term survival was analyzed by colony-formation assay. Exponentially growing melanoma and glioblastoma cells were seeded into 6-well plates at a density of 2×10^2/well and left to attach for 18 h; cells were then treated with the compounds under study and cultured to allow colony formation. After 10 days, colonies (defined as a cluster of >50 cells) were fixed and stained with rhodamine B basic violet 10 (ICN Biomedicals Inc., Aurora, Ohio, USA). Untreated or treated lymphoma cells were seeded at 1 cell/well in 96-well plates (flat-bottomed) and cultured. After 10 days, colonies were counted to determine cloning efficiency, using an optical microscope (Tentori 2001b).
(§3) Cell line chemosensitivity to TMZ, 43 or to the drug combination was evaluated in terms of IC50, i.e. the concentration of the drug expressed in μM, capable of inhibiting colony-forming ability by 50%. The IC50 was calculated on the regression line in which the number of colonies was plotted vs the drug concentration.

[2] = test system: regional heart ischemia reperfusion; test: regional heart ischemia reperfusion model (LAD occlusion); type: in vivo, rat; details: iv bolus pre-ischemia plus iv bolus post-ischemia, 10 to 40 mg/kg; 30 min LAD occlusion, 2 hr reperfusion; male SD rats
Protocol: In the present study, we investigated the effects of 43 in the regional heart ischemia reperfusion model. In regional heart ischemia model, sodium thiopental-anaesthetized male SD rats were subjected to occlusion of LAD coronary artery for 30 min followed by 2 hr of reperfusion. The infarct size was quantified by TTC staining method and expressed as percent of area at risk.
The left anterior descending coronary artery of Sprague-Dawley rats was occluded for 30 minutes. This was followed by 90-120 minutes of blood reflow. PARP inhibitor compounds were given intraperitoneally (ip), 60 minutes pre-, or intravenously (iv), 15 or 5 minutes pre- and 25 minutes post-onset of ischemia. Infarct size was determined by TTC staining and the risk area was determined via blue dye injection.

[3] = test system: lymphoma cell line L5178Y; test: colony-formation assay, L5178Y; type: cell-based, murine
Protocol: as §1
(§4) […] For the experiments aimed at assessing the enhancing effect of 43 on TMZ-induced tumor growth inhibition, the methylating agent was added to cell cultures 15 min after 43 was used at concentrations non-toxic, and capable of abrogating PARP activity.
as §2, §3

[4] = crossing of the blood-brain barrier; type: in vivo; details: systemic administration
B16 melanoma [5] = test: B16 melanoma growing subcutaneously in B6D2F1 mice; type: in vivo, mouse; details: 3 days
Protocol: 43 was administered 15 min before TMZ administration. Control mice were always injected with drug vehicles.
The efficacy of TMZ±43 treatment was also evaluated on melanoma growing subcutaneously (sc). For this purpose B16 cells (2.5×10^5) were inoculated sc in the flank of the animal. Tumors were measured with calipers and volume calculated according to the formula: [(width)^2×length]/2. Treatment was started 6 days after challenge, when the volume of tumor nodules reached 100-150 mm^3. Melanoma growth was monitored, by measuring tumor nodules every 3 days for 3 weeks.

B16 melanoma [6] = test: B16 melanoma growing at the CNS site (intracranial); type: in vivo, mouse
Protocol: (§5) The intracranial transplantation procedure was performed as previously described (Tentori 2002b). Cells (10^4 in 0.03 ml of RPMI-1640) were injected intra-cranially (ic) through the center-middle area of the frontal bone to a 2 mm depth, using a 0.1 ml glass microsyringe and a 27-gauge disposable needle.
(§6) Murine melanoma B16 or lymphoma L5178Y cells (10^4) were injected ic into male B6D2F1 (C57BL/6×DBA/2) mice. Human glioblastoma multiforme SJGBM2 cells (10^6) were injected ic into male athymic BALB/c mice (nu/nu genotype). Before tumor challenge, animals were anesthetized with ketamine (100 mg/kg) and xylazine (5 mg/kg) in 0.9% NaCl solution (10 ml/kg/ip).
(§7) Mice were monitored for mortality for 90 days. Median survival times (MST) were determined and the percentage of increase in lifespan (ILS) was calculated as: {[MST (days) of treated mice/MST (days) of control mice]−1}×100. Efficacy of treatments was evaluated by comparing survival curves between treated and control groups.
(§8) To assess the ability of different treatments to reduce tumor growth, histological examination of the brains was performed using additional animals that were not considered for the analysis of survival. Mice were sacrificed at different time points after tumor challenge, selected within the MST range of untreated tumor-bearing animals.

[7] = test system: murine melanoma cell line B16; test: colony-formation assay, B16; type: cell-based
Protocol: as §1, §4, §2, §3

[8] = drug toxicity / maximal tolerated dose in intact mice; details: TMZ ip + 43 iv, for 3 days
Protocol: Drug toxicity was evaluated by treating intact mice (5/group) with the compounds under study, used as single agents or in combination. Control groups were treated with vehicles only. Body weight was measured three times weekly and survivals were recorded for 3 weeks after the last treatment. Toxicity was assessed on the basis of apparent drug-related deaths and net body weight loss [i.e., (initial weight−lowest weight/initial weight)×100%]. Death was considered drug-related when occurring within 7 days after the last treatment.
43 was dissolved in 70 mM PBS without potassium, and injected intravenously (iv) at different doses (40-200 mg/kg) to establish the maximal tolerated dose.
TMZ was dissolved in dimethyl-sulfoxide (40 mg/ml), diluted in saline (5 mg/ml) and administered ip at doses commonly used for in vivo preclinical studies (Friedman 1995; Middleton 2000; Kokkinakis 2001). Experiments were performed using different doses and schedules of TMZ+43 to determine the maximal tolerated dose of the drug combination. 43 was administered 15 min before TMZ administration. Control mice were always injected with drug vehicles.

[9] = test system: SJGBM2 human glioblastoma multiforme; test: orthotopic human glioblastoma multiforme xenograft in nude mice; type: in vivo, mouse; details: with respect to controls or single agents
Protocol: as §5, §6, §7, §8

Which results are given for CN1CCN(Cc2ccc3c(c2)-c2n[nH]c(=O)c4cccc(c24)O3)CC1 [Compound 43, 10-(4-Methyl-piperazin-1-ylmethyl)-2H-7-oxa-1,2-diaza-benzo[de]anthracen-3-one]?
intrinsic growth inhibition as single agent ([1]; 1-25 μM 43, SJGBM2): some intrinsic growth inhibition; maximal increase of TMZ growth inhibitory effect ([1]; SJGBM2, 1.2 μM 43): ~4 fold; intrinsic growth inhibitory effect ([1]; SJGBM2, 2.5 μM 43): intrinsic growth inhibitory effect; cardiac protection (infarct size) [2]: significant cardiac protection; intrinsic growth inhibition as single agent ([3]; 1-25 μM 43, L5178Y): some intrinsic growth inhibition; maximal increase of TMZ growth inhibitory effect ([3]; L5178Y, 1.2 μM 43): ~10 fold; intrinsic growth inhibitory effect ([3]; L5178Y, 2.5 μM 43): intrinsic growth inhibitory effect; blood-brain barrier crossing [4]: capable of crossing the blood-brain barrier; tumor growth, 43 only (B16 melanoma [5]; 43 40 mg/kg/day iv, single agent): did not affect tumor growth; enhancement of the antitumor effects of TMZ (B16 melanoma [5]; TMZ 100 mg/kg/day ip + 43 40 mg/kg/day iv, P <0.0001): significantly enhanced; tumor infiltration in the brain (histology) (B16 melanoma [6]): pronounced and diffuse tumor infiltration; intrinsic growth inhibition as single agent ([7]; 1-25 μM 43, B16): some intrinsic growth inhibition; maximal enhancement of TMZ-induced growth inhibition ([7]; B16, 0.6 μM 43): 10 fold; susceptibility to antiproliferative effect with respect to SJGBM2 and L5178Y ([7]; B16, 43 as single agent): more susceptible; inhibition at 1.2 µM ([7]; Mus musculus, B16, 43 at 1.2 μM, read-out: growth inhibition with respect to control): 18 ± 3%

What does the source list for Cn1nnc2c(C(N)=O)ncn2c1=O [TMZ, temozolimide]?
highest tolerable dose of the drug combination [8]: 100 mg/kg/day; survival of tumor bearing mice [9]: completely ineffective; tumor infiltration in the brain (histology) (B16 melanoma [6]): limited but multifocal infiltration
